Values of other authors in patent US12187744B2, “IRAK4 degraders and synthesis thereof” (Kymera Therapeutics, Inc., priority 2021, dated 2025).

Tests used:
[1] = in vivo
[2] = per ICH M7(R1) guidance

SMILES	results in rodent carcinogenicity assays [1]	ICH M7(R1) Class [2]
CI [Methyl iodide]	positive	
CC(C)Cl [Isopropyl chloride]		2
